According to PubChem BioAssay AID1963833 (Molecular Pharmacology Branch, DTP, NCI, 2024):

Test system: 883617-216-R-J1-PDC complex spheroid viability
Test: Anticancer human tumor 883617-216-R-J1-PDC patient-derived bladder carcinoma cell line growth inhibition [POLQ]
Conditions: for IC50: curve of first compound; for viability, T/C: stronger effect = lower value
Summary of the method: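 Patient-derived tumour cells were co-cultured with HUVEC and mesenchymal stem cells as multicellular spheroids at 37 °C. They were treated with POLQ inhibitors (novobiocin, ART-558, RP6685) alone or combined with other agents. Top concentrations were at or near clinical Cmax (otherwise 10 microM; SN-38 at 1 microM), decreasing in half-log steps.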

[1] = second compound 0.0316 µM, first compound 0.0316 µM
[2] = second compound 0.0316 µM, first compound 0.1 µM
[3] = second compound 0.0316 µM, first compound 0.316 µM
[4] = second compound 0.0316 µM, first compound 1 µM
[5] = second compound 0.0316 µM, first compound 3.16 µM
[6] = second compound 0.0316 µM, first compound 10 µM
[7] = second compound 0.1 µM, first compound 0.0316 µM
[8] = second compound 0.1 µM, first compound 0.1 µM
[9] = second compound 0.1 µM, first compound 0.316 µM
[10] = second compound 0.1 µM, first compound 1 µM
[11] = second compound 0.1 µM, first compound 3.16 µM
[12] = second compound 0.1 µM, first compound 10 µM
[13] = second compound 0.316 µM, first compound 0.0316 µM
[14] = second compound 0.316 µM, first compound 0.1 µM
[15] = second compound 0.316 µM, first compound 0.316 µM
[16] = second compound 0.316 µM, first compound 1 µM
[17] = second compound 0.316 µM, first compound 3.16 µM
[18] = second compound 0.316 µM, first compound 10 µM
[19] = second compound 1 µM, first compound 0.0316 µM
[20] = second compound 1 µM, first compound 0.1 µM
[21] = second compound 1 µM, first compound 0.316 µM
[22] = second compound 1 µM, first compound 1 µM
[23] = second compound 1 µM, first compound 3.16 µM
[24] = second compound 1 µM, first compound 10 µM
[25] = second compound 3.16 µM, first compound 0.0316 µM
[26] = second compound 3.16 µM, first compound 0.1 µM
[27] = second compound 3.16 µM, first compound 0.316 µM
[28] = second compound 3.16 µM, first compound 1 µM
[29] = second compound 3.16 µM, first compound 3.16 µM
[30] = second compound 3.16 µM, first compound 10 µM
[31] = second compound 10 µM, first compound 0.0316 µM
[32] = second compound 10 µM, first compound 0.1 µM
[33] = second compound 10 µM, first compound 0.316 µM
[34] = second compound 10 µM, first compound 1 µM
[35] = second compound 10 µM, first compound 3.16 µM
[36] = second compound 10 µM, first compound 10 µM
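Further: spheroids exposed to compounds for seven days before readout.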
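Wherever viability, T/C is given: 100% = DMSO vehicle control viability.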

CC1COCCN1c1cc(C2(O)CC3CCC(C2)O3)c2cnn(-c3ccn[nH]3)c2n1 (stereo unspecified) + Nc1ccc(C#CCN(C(=O)Cc2ncc(C(F)(F)F)cc2C(F)(F)F)c2ccc(F)cc2)nn1
IC50 (second compound 0.0316 µM): 0.214 µM | IC50 (second compound 0.1 µM): 0.168 µM | IC50 (second compound 0.316 µM): 0.414 µM | IC50 (second compound 1 µM): 0.175 µM | IC50 (second compound 3.16 µM): 0.218 µM | IC50 (second compound 10 µM): 0.269 µM | viability, T/C [1]: 70.8% | viability, T/C [2]: 50.9% | viability, T/C [3]: 48% | viability, T/C [4]: 38.4% | viability, T/C [5]: 35% | viability, T/C [6]: 22.9% | viability, T/C [7]: 75.2% | viability, T/C [8]: 50.6% | viability, T/C [9]: 40.9% | viability, T/C [10]: 44.2% | viability, T/C [11]: 34.9% | viability, T/C [12]: 23.8% | viability, T/C [13]: 68.8% | viability, T/C [14]: 63.2% | viability, T/C [15]: 47.8% | viability, T/C [16]: 42.9% | viability, T/C [17]: 37.5% | viability, T/C [18]: 21.9% | viability, T/C [19]: 60.9% | viability, T/C [20]: 51.9% | viability, T/C [21]: 45.1% | viability, T/C [22]: 39.9% | viability, T/C [23]: 32.3% | viability, T/C [24]: 20.9% | viability, T/C [25]: 67% | viability, T/C [26]: 60.2% | viability, T/C [27]: 45.2% | viability, T/C [28]: 33.8% | viability, T/C [29]: 38.7% | viability, T/C [30]: 26.9% | viability, T/C [31]: 73.1% | viability, T/C [32]: 53.1% | viability, T/C [33]: 53.1% | viability, T/C [34]: 41.5% | viability, T/C [35]: 39.2% | viability, T/C [36]: 35.3%

CCc1cc2c(N3CCc4c(cc(Cn5ccnc5)cc4-c4cn(C)nc4C(F)(F)F)C3=O)cc(C)nc2c(OC)n1 + Nc1ccc(C#CCN(C(=O)Cc2ncc(C(F)(F)F)cc2C(F)(F)F)c2ccc(F)cc2)nn1
IC50 (second compound 0.0316 µM): > 10 µM | IC50 (second compound 0.1 µM): > 10 µM | IC50 (second compound 0.316 µM): > 10 µM | IC50 (second compound 1 µM): > 10 µM | IC50 (second compound 3.16 µM): > 10 µM | IC50 (second compound 10 µM): 9.75 µM | viability, T/C [1]: 89.2% | viability, T/C [2]: 92.2% | viability, T/C [3]: 92.8% | viability, T/C [4]: 90.4% | viability, T/C [5]: 76% | viability, T/C [6]: 52.3% | viability, T/C [7]: 85.5% | viability, T/C [8]: 96.9% | viability, T/C [9]: 95.5% | viability, T/C [10]: 90.6% | viability, T/C [11]: 79.5% | viability, T/C [12]: 64.5% | viability, T/C [13]: 105% | viability, T/C [14]: 93.1% | viability, T/C [15]: 98% | viability, T/C [16]: 88.4% | viability, T/C [17]: 73.9% | viability, T/C [18]: 57.4% | viability, T/C [19]: 91.5% | viability, T/C [20]: 93.3% | viability, T/C [21]: 94% | viability, T/C [22]: 88.9% | viability, T/C [23]: 71.6% | viability, T/C [24]: 61.8% | viability, T/C [25]: 106% | viability, T/C [26]: 92.4% | viability, T/C [27]: 96.4% | viability, T/C [28]: 97.5% | viability, T/C [29]: 78.6% | viability, T/C [30]: 67.8% | viability, T/C [31]: 106% | viability, T/C [32]: 118% | viability, T/C [33]: 115% | viability, T/C [34]: 101% | viability, T/C [35]: 90.5% | viability, T/C [36]: 48.8%

CCc1cc2c(N3CCc4c(cc(Cn5ccnc5)cc4-c4cn(C)nc4C(F)(F)F)C3=O)ccnc2c(OC)n1 + Nc1ccc(C#CCN(C(=O)Cc2ncc(C(F)(F)F)cc2C(F)(F)F)c2ccc(F)cc2)nn1
IC50 (second compound 0.0316 µM): 9.57 µM | IC50 (second compound 0.1 µM): 9.93 µM | IC50 (second compound 0.316 µM): > 10 µM | IC50 (second compound 1 µM): > 10 µM | IC50 (second compound 3.16 µM): > 10 µM | IC50 (second compound 10 µM): > 10 µM | viability, T/C [1]: 109% | viability, T/C [2]: 97.5% | viability, T/C [3]: 91.4% | viability, T/C [4]: 104% | viability, T/C [5]: 80.4% | viability, T/C [6]: 48.8% | viability, T/C [7]: 91.1% | viability, T/C [8]: 109% | viability, T/C [9]: 103% | viability, T/C [10]: 105% | viability, T/C [11]: 86% | viability, T/C [12]: 49.8% | viability, T/C [13]: 98.8% | viability, T/C [14]: 107% | viability, T/C [15]: 102% | viability, T/C [16]: 91.1% | viability, T/C [17]: 84.8% | viability, T/C [18]: 59% | viability, T/C [19]: 95.6% | viability, T/C [20]: 104% | viability, T/C [21]: 97.9% | viability, T/C [22]: 94.9% | viability, T/C [23]: 88.9% | viability, T/C [24]: 61% | viability, T/C [25]: 109% | viability, T/C [26]: 97.7% | viability, T/C [27]: 110% | viability, T/C [28]: 102% | viability, T/C [29]: 82.3% | viability, T/C [30]: 69.6% | viability, T/C [31]: 105% | viability, T/C [32]: 99.6% | viability, T/C [33]: 107% | viability, T/C [34]: 108% | viability, T/C [35]: 82.9% | viability, T/C [36]: 57.8%
